Entries after “also recorded” stand apart in the source; their conditions may differ. Where no end group is shown, it is not given here.
Experiments:
[1] = biological target: prostate-specific antigen (PSA) (Homo sapiens, UniProt P07288)
Protocol: (§1) All incubation sample tubes were pulsed briefly in a microcentrifuge, and immediately stored at −20°C. Samples were electrophoresed on mini-16% Tricine-SDS gels, and stained.
(§2) Digested peptide fragments from protease incubations underwent MALDI-TOF/TOF MS/MS analysis using the Model Ultraflex III mass spectrometer (Bruker Daltonics, Billerica, MA, USA) equipped with LIFT capability. Samples were desalted using C18 ZipTips (Millipore, Bedford, MA, USA) and were analyzed in positive reflector mode. External calibration was performed using a mass standards kit for proteomics analyzer (Applied Biosystems). Samples also underwent analysis via nano-LC ESI-TOF MS/MS using the maXis ESI-Q-TOF (Bruker Daltonics) mass spectrometer online with the Dionex model U3000 nanobore HPLC [28]. Data were analyzed with the Sprot database using the Bruker ProteinScape program version 2.1 and Mascot program version 2.2 with enzyme setting to semiTrypsin.

prostasin = prostasin (Homo sapiens, UniProt Q16651)
Protocol: as §1, §2

trypsin [2] = test system: trypsin
Protocol: as §1, §2

matriptase = matriptase (Homo sapiens, UniProt Q9Y5Y6)
Protocol: as §1, §2

[3] = 300 rpm, 37°C, Tricine-SDS gel; for stability in SP containing protease inhibitor (PI) cocktail: SP spiked with broad spectrum PI cocktail, 1–24 h; for time to complete degradation / time to partial degradation: three volumes peptide (1 mg/ml) with one volume whole SP, Coomassie blue
Protocol: as §1

trypsin [4] = assay: trypsin diluted with sterile PBS; details: 37°C, up to 24 h
[5] = SP spiked with a broad spectrum protease inhibitor (PI); details: human, 37°C, up to 24 h
TZM-bl cells [6] = type: cell-based; details: 24 h of treatment; peptides 35 µg/ml, SP 1%
Protocol: (§3) All treated cells were lysed using a Bright Glo luciferase system (Promega, Madison, WI, USA), and the ability to prevent HIV-1 infection was measured as a percent reduction in luciferase (relative light units or RLU) compared to the positive viral control (media and virus only). Metabolic activity of the cells was verified by a tetrazolium-based (MTT) assay according to manufacturer's instructions (R&D Systems, Minneapolis, MN, USA), while cytotoxicity was measured using the standard trypan blue dye exclusion assay.

PBMCs = details: 35 µg/ml with or without 1% SP; n = 3
Protocol: (§4) Cells were then washed, and resuspended in fresh media with sample treatments for 5–7 days. Supernatants were collected on alternate days, and cells in culture were resuspended in sample or media alone. To ensure cell viability, standard trypan blue dye exclusion assays were performed. To quantify viral inhibition, the amount of p24gag was measured in cell supernatants with an ELISA (PerkinElmer, Waltham, MA, USA).
(§5) The antiviral, metabolic, and cytotoxicity experiments were performed at least three times, and each of the assays were performed in triplicate or quadruplicate. For the TZM-bl antiviral assays the infected vehicle-only controls were averaged and set as 100% infection. For the PM1 and PBMC antiviral assays, p24 ELISA quantification established the infected vehicle-only control as 100% infection. […] Individual treatments were analyzed by either one-way ANOVA with Tukey's multiple comparisons post-test or two-tailed unpaired t-test.

PM1 cells = details: 35 µg/ml with or without 1% SP; n = 3
Protocol: as §4, §5

TZM-bl cells [7] = assay: MTT metabolic assay; type: cell-based; details: cells treated for 24 h; peptides 35 µg/ml, SP 1%
Protocol: as §3

[8] = MALDI TOF/TOF MS/MS and nano-LC-MS/MS

Sequence of prostate-specific antigen (PSA) (P07288 25-261): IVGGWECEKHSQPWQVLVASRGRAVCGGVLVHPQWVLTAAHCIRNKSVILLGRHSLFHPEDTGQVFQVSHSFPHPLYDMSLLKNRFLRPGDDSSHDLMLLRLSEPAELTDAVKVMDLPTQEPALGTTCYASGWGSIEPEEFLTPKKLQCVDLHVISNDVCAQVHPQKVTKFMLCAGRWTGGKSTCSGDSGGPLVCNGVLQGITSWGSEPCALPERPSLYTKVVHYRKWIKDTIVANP
Sequence of matriptase (Q9Y5Y6 whole entry): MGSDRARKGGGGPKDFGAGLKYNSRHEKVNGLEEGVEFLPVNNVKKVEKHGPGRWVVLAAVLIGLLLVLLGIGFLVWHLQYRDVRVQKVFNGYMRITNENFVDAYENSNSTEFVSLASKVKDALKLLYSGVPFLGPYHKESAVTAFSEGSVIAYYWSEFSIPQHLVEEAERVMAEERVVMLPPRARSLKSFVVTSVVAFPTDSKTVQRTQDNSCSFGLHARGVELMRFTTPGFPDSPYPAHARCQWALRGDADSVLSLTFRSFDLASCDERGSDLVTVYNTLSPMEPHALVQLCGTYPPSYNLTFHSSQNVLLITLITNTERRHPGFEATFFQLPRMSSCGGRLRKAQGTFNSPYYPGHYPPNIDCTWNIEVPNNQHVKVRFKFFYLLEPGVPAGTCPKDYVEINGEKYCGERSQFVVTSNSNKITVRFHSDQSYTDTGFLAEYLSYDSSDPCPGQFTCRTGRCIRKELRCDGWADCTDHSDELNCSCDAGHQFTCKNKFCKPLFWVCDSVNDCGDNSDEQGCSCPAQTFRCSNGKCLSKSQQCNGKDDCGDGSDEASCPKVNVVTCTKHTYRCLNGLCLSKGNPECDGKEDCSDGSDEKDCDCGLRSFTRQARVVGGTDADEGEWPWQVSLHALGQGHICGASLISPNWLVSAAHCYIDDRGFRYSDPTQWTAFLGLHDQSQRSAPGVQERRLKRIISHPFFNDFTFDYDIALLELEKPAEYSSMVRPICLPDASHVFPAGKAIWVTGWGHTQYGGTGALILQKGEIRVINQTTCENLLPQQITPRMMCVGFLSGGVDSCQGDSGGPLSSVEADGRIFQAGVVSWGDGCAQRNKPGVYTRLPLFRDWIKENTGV
Sequence of prostasin (Q16651 33-343): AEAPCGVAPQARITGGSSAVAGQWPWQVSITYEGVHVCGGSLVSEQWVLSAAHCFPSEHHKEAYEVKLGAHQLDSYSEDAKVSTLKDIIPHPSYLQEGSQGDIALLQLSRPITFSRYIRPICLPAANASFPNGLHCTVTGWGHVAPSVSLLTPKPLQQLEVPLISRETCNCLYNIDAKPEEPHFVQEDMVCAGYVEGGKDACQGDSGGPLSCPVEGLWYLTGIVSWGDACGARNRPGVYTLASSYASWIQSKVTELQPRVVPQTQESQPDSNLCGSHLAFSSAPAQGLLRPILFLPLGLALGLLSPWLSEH

In the case of “GIHKQKEKSRLQGGVLVNEILNHMKRATQIPSYKKLIMY [PAP^286]”, the “cleavage products by MS after incubation with PSA” value [1, 8] is reported as “detectable cleavage products”, the “degradation by PSA” value ([1]; PAP^286 54 µM (250 µg/ml), PSA 1 µM in PBS, 300 rpm, 24 h, 37°C, Tricine-SDS gel, silver stain) is reported as “degradation of the PAP peptide with visible cleavage products” and the “PSA concentration giving complete degradation” value ([1]; PAP^286 54 µM, PSA 1.5 µM–[…], 300 rpm, 24 h, 37°C, Tricine-SDS gel, silver stain) is reported as 0.75 µM. For the same sequence, the “cleavage products by MS after incubation with prostasin” value (prostasin; [8]) was “detectable cleavage products”, the degradation by prostasin (prostasin; PAP^286 54 µM, prostasin 1 µM in PBS, 300 rpm, 24 h, 37°C, Tricine-SDS gel, silver stain) was “did not effectively degrade” and the “cleavage products by MS after incubation with trypsin” value (trypsin [2]; [8]) was “detectable cleavage products”. For the same sequence, the “degradation by trypsin (positive control)” value (trypsin [2]; PAP^286 54 µM, trypsin 1 µM in PBS, 300 rpm, 24 h, 37°C, Tricine-SDS gel, silver stain) was “completely degraded the peptide, with no cleavage products visualized”, the “cleavage products by MS after incubation with matriptase” value (matriptase; [8]) was “detectable cleavage products” and the degradation by matriptase (matriptase; PAP^286 54 µM, matriptase 1 µM in PBS, 300 rpm, 24 h, 37°C, Tricine-SDS gel, silver stain) was “degradation of the PAP peptide with visible cleavage products”. The “stability in SP containing protease inhibitor (PI) cocktail” value [3] was “preservation”, the “time to complete degradation” value [3] was ≤ 3 h and the “time to partial degradation” value [3] was ≤ 1 h.
With GIHKQKEKSRLQGGVLVNEILNHMKRATQIPSYKKLIMY the fragment found (trypsin [4]) was “SRLQGGVLVNEILNHMKR; also recorded: ATQIPSYK; also recorded: LQGGVLV; also recorded: RATQIPS; also recorded: ATQIPS; also recorded: LQGGVL; also recorded: LQGGV” and the not cleaved [5] was “preservation of the PAP peptides over time”.
In the case of GIHKQKEKSRLQGGVLVNE [PAP^266], the “cytotoxicity (trypan blue)” value (TZM-bl cells [6]) is reported as “lack of cytotoxicity”, the “cytotoxicity (trypan blue)” value (PBMCs) is reported as “No appreciable cytotoxicity” and the “cytotoxicity (trypan blue)” value (PM1 cells) is reported as “No appreciable cytotoxicity”. The “metabolic activity of cells (MTT)” value (TZM-bl cells [7]) was “no significant adverse effects to metabolic activity”, the “stability in SP containing protease inhibitor (PI) cocktail” value [3] was “preservation” and the “time to complete degradation” value [3] was ≤ 3 h. For the same sequence, the “time to partial degradation” value [3] was ≤ 1 h.

From PMC3024420 (PLoS ONE, 2011)
